Assays:
b-Raf (V600E) = target: T1, b-Raf (V600E) (Homo sapiens, UniProt P15056, V600E); experiment: In vitro Raf activity determination (Alpha Screen, biotinylated kinase-dead MEK1 substrate), B-Raf; format: biochemical; conditions: b-Raf (V600E) approximately 4 pM; ATP 10 μM; pre-incubation 60 minutes; reaction 3 hours at room temperature
T1 construct: made in house
Summary of the method: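 IC50 from non-linear regression of AlphaScreen phospho-MEK signal (anti-p-MEK1/2 antibody). b-Raf(V600E), about 4 pM, phosphorylated ~10 nM biotinylated K97R MEK1 with 10 μM ATP for 3 h at room temperature after 60 min compound pre-incubation; buffer pH 7.5 Tris, 15 mM MgCl2, 1 mM DTT.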

C-RAF = target: T2, C-RAF (Homo sapiens, UniProt P04049, Y340E/Y341E); experiment: In vitro Raf activity determination (Alpha Screen, biotinylated kinase-dead MEK1 substrate), C-Raf; format: biochemical; conditions: c-Raf approximately 4 nM; ATP 1 μM; pre-incubation 60 minutes; reaction 1 hour at room temperature
T2 construct: His tag (implied by nickel chromatography) (cleaved yes); StrepII tag (cleaved yes); made in house; host or cells: Sf9 insect cells (baculovirus), CRAF and h14-3-3 zeta co-expressed; MEK1 substrate from E. coli
T2 sequence (P04049 whole entry Y340E/Y341E): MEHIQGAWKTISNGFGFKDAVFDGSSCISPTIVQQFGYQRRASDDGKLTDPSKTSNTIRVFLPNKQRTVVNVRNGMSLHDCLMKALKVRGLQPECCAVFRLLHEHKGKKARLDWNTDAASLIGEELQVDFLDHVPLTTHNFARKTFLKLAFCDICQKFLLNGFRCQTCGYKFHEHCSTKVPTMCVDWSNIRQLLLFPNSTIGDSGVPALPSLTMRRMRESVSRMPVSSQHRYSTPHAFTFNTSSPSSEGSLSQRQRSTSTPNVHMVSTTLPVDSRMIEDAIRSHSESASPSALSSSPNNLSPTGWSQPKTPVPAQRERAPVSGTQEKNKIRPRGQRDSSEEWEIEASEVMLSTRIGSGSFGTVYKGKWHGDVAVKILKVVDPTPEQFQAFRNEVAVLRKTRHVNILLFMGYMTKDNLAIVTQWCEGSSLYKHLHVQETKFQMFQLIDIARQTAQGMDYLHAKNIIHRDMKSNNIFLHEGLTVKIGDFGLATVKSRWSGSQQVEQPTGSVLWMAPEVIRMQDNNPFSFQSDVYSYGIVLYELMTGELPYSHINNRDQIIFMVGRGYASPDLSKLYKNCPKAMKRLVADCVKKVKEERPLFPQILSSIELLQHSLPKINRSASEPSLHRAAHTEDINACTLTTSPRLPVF
T2 sequence (P63104 whole entry partner): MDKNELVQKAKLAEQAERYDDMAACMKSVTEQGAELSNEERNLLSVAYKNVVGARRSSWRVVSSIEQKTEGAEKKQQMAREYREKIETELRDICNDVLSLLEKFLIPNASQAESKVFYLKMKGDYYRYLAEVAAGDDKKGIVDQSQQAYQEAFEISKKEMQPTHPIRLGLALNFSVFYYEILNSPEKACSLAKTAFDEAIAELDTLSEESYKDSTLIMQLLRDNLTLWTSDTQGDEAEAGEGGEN
Summary of the method: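 AlphaScreen read-out of MEK phosphorylation using an anti-phospho-MEK1/2 antibody after a 1 hour room-temperature reaction at 1 μM ATP. Enzyme: approximately 4 nM Sf9-expressed full-length activated C-Raf (Y340E/Y341E, with 14-3-3ζ) on approximately 10 nM biotinylated K97R MEK1, after 60 min compound preincubation. IC50 by non-linear fit.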

T1 sequence (P15056 whole entry V600E): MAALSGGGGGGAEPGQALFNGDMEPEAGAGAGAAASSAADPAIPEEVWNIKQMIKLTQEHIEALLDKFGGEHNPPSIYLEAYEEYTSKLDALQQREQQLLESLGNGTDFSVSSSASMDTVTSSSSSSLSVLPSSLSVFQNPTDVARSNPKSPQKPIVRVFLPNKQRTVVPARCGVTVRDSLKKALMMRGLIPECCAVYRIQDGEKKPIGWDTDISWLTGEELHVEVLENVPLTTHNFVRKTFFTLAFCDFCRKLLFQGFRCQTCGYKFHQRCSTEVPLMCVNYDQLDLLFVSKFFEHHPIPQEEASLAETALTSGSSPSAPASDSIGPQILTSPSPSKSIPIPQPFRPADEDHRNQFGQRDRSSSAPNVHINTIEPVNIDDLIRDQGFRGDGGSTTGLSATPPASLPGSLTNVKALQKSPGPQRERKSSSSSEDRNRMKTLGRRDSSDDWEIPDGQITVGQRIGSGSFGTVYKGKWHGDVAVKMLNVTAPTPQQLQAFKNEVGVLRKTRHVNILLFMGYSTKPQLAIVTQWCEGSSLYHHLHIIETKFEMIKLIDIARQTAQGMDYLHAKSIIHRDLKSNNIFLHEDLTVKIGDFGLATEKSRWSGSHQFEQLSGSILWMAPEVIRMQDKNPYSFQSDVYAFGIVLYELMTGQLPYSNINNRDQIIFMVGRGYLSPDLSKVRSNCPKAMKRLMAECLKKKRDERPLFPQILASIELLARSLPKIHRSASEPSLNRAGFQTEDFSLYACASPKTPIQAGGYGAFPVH

`Cc1ccc(NC(=O)c2ccnc(C(F)(F)F)c2)cc1-c1cnc(-n2ccc(=O)cc2)c(C#N)c1` [Example 119, N-(3-(3′-cyano-4-oxo-4H-[1,2′-bipyridin]-5′-yl)-4-methylphenyl)-2-(trifluoromethyl) isonicotinamide] gave an IC50 (b-Raf (V600E)) of 12.2 nM and an IC50 (C-RAF) of 1.65 nM.

With `Cc1ccc(NC(=O)c2ccnc(C(C)(C)C#N)c2)cc1-c1cnc(-n2ccc(=O)cc2)c(C#N)c1` [Example 120, N-(3-(3′-cyano-4-oxo-4H-[1,2′-bipyridin]-5′-yl)-4-methylphenyl)-2-(2-cyanopropan-2-yl)isonicotinamide] the IC50 (b-Raf (V600E)) was 34.6 nM and the IC50 (C-RAF) was 6.84 nM.

Work on `Cc1ccc(NC(=O)c2ccnc(C(F)(F)F)c2)cc1-c1cnc(C(C)C)c(C#N)c1` [Example 121, N-(3-(5-cyano-6-isopropylpyridin-3-yl)-4-methylphenyl)-2-(trifluoromethyl) isonicotinamide] yielded an IC50 (b-Raf (V600E)) of 0.871 nM and an IC50 (C-RAF) of 0.307 nM.

`Cc1ccc(NC(=O)c2ccnc(C(C)(C)C#N)c2)cc1-c1cnc(C(C)C)c(C#N)c1` [Example 122, N-(3-(5-cyano-6-isopropylpyridin-3-yl)-4-methylphenyl)-2-(2-cyanopropan-2-yl)isonicotinamide] was tested, and the IC50 (b-Raf (V600E)) was 2.8 nM and the IC50 (C-RAF) was 0.994 nM.

Compound `Cc1ccc(NC(=O)c2cccc(C(F)(F)F)c2)cc1-c1cnc(-c2cnn(C)c2)c(C#N)c1` [Example 123, N-(3-(5-cyano-6-(1-methyl-1H-pyrazol-4-yl)pyridin-3-yl)-4-methylphenyl)-3-(trifluoromethyl) benzamide] has an IC50 (b-Raf (V600E)) of 1.18 nM and an IC50 (C-RAF) of 0.15 nM.

With `Cc1ccc(NC(=O)c2ccnc(C(F)(F)F)c2)cc1-c1cnc(-c2cnn(C)c2)c(C#N)c1` [Example 124, N-(3-(5-cyano-6-(1-methyl-1H-pyrazol-4-yl)pyridin-3-yl)-4-methylphenyl)-2-(trifluoromethyl) isonicotinamide] the IC50 (b-Raf (V600E)) was 0.427 nM and the IC50 (C-RAF) was 0.0746 nM.

`Cc1ccc(NC(=O)c2ccnc(C(C)(C)C#N)c2)cc1-c1cnc(-c2cnn(C)c2)c(C#N)c1` [Example 125, N-(3-(5-cyano-6-(1-methyl-1H-pyrazol-4-yl)pyridin-3-yl)-4-methylphenyl)-2-(2-cyanopropan-2-yl)isonicotinamide] gave an IC50 (b-Raf (V600E)) of 1.46 nM and an IC50 (C-RAF) of 0.254 nM.

With `Cc1ccc(NC(=O)c2ccnc(C(F)F)c2)cc1-c1cnc(-c2cnn(C)c2)c(C#N)c1` [Example 126, N-(3-(5-cyano-6-(1-methyl-1H-pyrazol-4-yl)pyridin-3-yl)-4-methylphenyl)-2-(difluoromethyl) isonicotinamide] the IC50 (b-Raf (V600E)) was 0.304 nM and the IC50 (C-RAF) was 0.0423 nM.

For `Cc1ncc(NC(=O)c2ccnc(C(F)(F)F)c2)cc1-c1cnc(C2CCOCC2)c(C#N)c1` [Example 127, N-(5′-cyano-2-methyl-6′-(tetrahydro-2H-pyran-4-yl)-[3,3′-bipyridin]-5-yl)-2-(trifluoromethyl) isonicotinamide], the IC50 (b-Raf (V600E)) was 3.11 nM and the IC50 (C-RAF) was 0.464 nM.

Compound `Cc1ncc(NC(=O)c2cccc(C(F)(F)F)c2)cc1-c1cnc(C2CCOCC2)c(C#N)c1` [Example 128] has an IC50 (b-Raf (V600E)) of 1.34 nM and an IC50 (C-RAF) of 0.202 nM.

`Cc1ncc(NC(=O)c2ccnc(C(F)F)c2)cc1-c1cnc(C2CCOCC2)c(C#N)c1` [Example 129, N-(5′-cyano-2-methyl-6′-(tetrahydro-2H-pyran-4-yl)-[3,3′-bipyridin]-5-yl)-2-(difluoromethyl) isonicotinamide] showed an IC50 (b-Raf (V600E)) of 23.8 nM and an IC50 (C-RAF) of 2.55 nM.

`Cc1ncc(NC(=O)c2ccnc(C(C)C)c2)cc1-c1cnc(C2CCOCC2)c(C#N)c1` [Example 130, N-(5′-cyano-2-methyl-6′-(tetrahydro-2H-pyran-4-yl)-[3,3′-bipyridin]-5-yl)-2-isopropyl-isonicotinamide] showed an IC50 (b-Raf (V600E)) of 4.83 nM and an IC50 (C-RAF) of 0.879 nM.

With `Cc1ncc(NC(=O)c2ccnc(C3CC3)c2)cc1-c1cnc(C2CCOCC2)c(C#N)c1` [Example 131, N-(5′-cyano-2-methyl-6′-(tetrahydro-2H-pyran-4-yl)-[3,3′-bipyridin]-5-yl)-2-cyclopropyl-isonicotinamide] the IC50 (b-Raf (V600E)) was 4.26 nM and the IC50 (C-RAF) was 0.745 nM.

Compound `Cc1ncc(NC(=O)c2cccc(C(F)F)c2)cc1-c1cnc(N2CCOCC2)c(C#N)c1` [Example 132, N-(5′-cyano-2-methyl-6′-morpholino-[3,3′-bipyridin]-5-yl)-3-(difluoromethyl) benzamide] has an IC50 (b-Raf (V600E)) of 0.542 nM and an IC50 (C-RAF) of 0.117 nM.

Work on `Cc1ncc(NC(=O)c2ccnc(C(C)C)c2)cc1-c1cnc(N2CCOCC2)c(C#N)c1` [Example 133, N-(5′-cyano-2-methyl-6′-morpholino-[3,3′-bipyridin]-5-yl)-2-isopropyl-isonicotinamide] yielded an IC50 (b-Raf (V600E)) of 2.05 nM and an IC50 (C-RAF) of 0.33 nM.

Compound `Cc1ncc(NC(=O)c2ccnc(C3CC3)c2)cc1-c1cnc(N2CCOCC2)c(C#N)c1` [Example 134, N-(5′-cyano-2-methyl-6′-morpholino-[3,3′-bipyridin]-5-yl)-2-cyclopropyl-isonicotinamide] has an IC50 (b-Raf (V600E)) of 1.46 nM and an IC50 (C-RAF) of 0.236 nM.

`CCn1cc(C(=O)Nc2cnc(C)c(-c3cnc(N4CCOCC4)c(C#N)c3)c2)cc(C(F)(F)F)c1=O` [Example 135, N-(5′-cyano-2-methyl-6′-morpholino-[3,3′-bipyridin]-5-yl)-1-ethyl-6-oxo-5-(trifluoromethyl)-1,6-dihydropyridine-3-carboxamide] gave an IC50 (b-Raf (V600E)) of 4.79 nM and an IC50 (C-RAF) of 0.969 nM.

For `Cc1ncc(NC(=O)c2ccnc(C(F)F)c2)cc1-c1cnc(N2CCOCC2)c(C#N)c1` [Example 136, N-(5′-cyano-2-methyl-6′-morpholino-[3,3′-bipyridin]-5-yl)-2-(difluoromethyl) isonicotinamide], the IC50 (b-Raf (V600E)) was 1.16 nM and the IC50 (C-RAF) was 0.153 nM.

Work on `Cc1ccc(NC(=O)c2ccnc(C(C)(C)C#N)c2)cc1-c1cnc(C2CCOCC2)c(C#N)c1` [Example 137, N-(3-(5-cyano-6-(tetrahydro-2H-pyran-4-yl)pyridin-3-yl)-4-methylphenyl)-2-(2-cyanopropan-2-yl)isonicotinamide] yielded an IC50 (b-Raf (V600E)) of 1.98 nM and an IC50 (C-RAF) of 0.476 nM.

`Cc1ccc(NC(=O)c2ccnc(S(C)(=O)=O)c2)cc1-c1cnc(C2CCOCC2)c(C#N)c1` [Example 138, N-(3-(5-cyano-6-(tetrahydro-2H-pyran-4-yl)pyridin-3-yl)-4-methylphenyl)-2-(methylsulfonyl) isonicotinamide] showed an IC50 (b-Raf (V600E)) of 4.14 nM and an IC50 (C-RAF) of 0.511 nM.

For `Cc1ccc(NC(=O)c2cccc(S(C)(=O)=O)c2)cc1-c1cnc(C2CCOCC2)c(C#N)c1` [Example 139, N-(3-(5-cyano-6-(tetrahydro-2H-pyran-4-yl)pyridin-3-yl)-4-methylphenyl)-3-(methylsulfonyl) benzamide], the IC50 (b-Raf (V600E)) was 2.4 nM and the IC50 (C-RAF) was 0.377 nM.

In the case of `Cc1ccc(NC(=O)c2ccnc(C(C)(C)O)c2)cc1-c1cnc(C2CCOCC2)c(C#N)c1` [Example 140, N-(3-(5-cyano-6-(tetrahydro-2H-pyran-4-yl)pyridin-3-yl)-4-methylphenyl)-2-(2-hydroxypropan-2-yl)isonicotinamide], the IC50 (b-Raf (V600E)) is reported as 3.61 nM and the IC50 (C-RAF) is reported as 0.792 nM.

In the case of `Cc1ncc(NC(=O)c2cccc(C(F)(F)F)n2)cc1-c1cnc(C2CCOCC2)c(C#N)c1` [Example 141, N-(5′-cyano-2-methyl-6′-(tetrahydro-2H-pyran-4-yl)-[3,3′-bipyridin]-5-yl)-6-(trifluoromethyl) picolinamide], the IC50 (b-Raf (V600E)) is reported as 56.2 nM and the IC50 (C-RAF) is reported as 5.13 nM.

`Cc1ncc(NC(=O)c2cnnc(C(F)(F)F)c2)cc1-c1cnc(N2CCOCC2)c(C#N)c1` [Example 142, N-(5′-cyano-2-methyl-6′-morpholino-[3,3′-bipyridin]-5-yl)-6-(trifluoromethyl) pyridazine-4-carboxamide] showed an IC50 (b-Raf (V600E)) of 2.79 nM and an IC50 (C-RAF) of 0.344 nM.

Compound `Cc1ccc(NC(=O)c2cnnc(C(F)(F)F)c2)cc1-c1cnc(N2CCNCC2)c(C#N)c1` [Example 143, N-(3-(5-cyano-6-(piperazin-1-yl)pyridin-3-yl)-4-methylphenyl)-6-(trifluoromethyl) pyridazine-4-carboxamide] has an IC50 (b-Raf (V600E)) of 5.63 nM and an IC50 (C-RAF) of 0.842 nM.

With `Cc1ncc(NC(=O)c2cnnc(C(F)(F)F)c2)cc1-c1cnc(C2CCOCC2)c(C#N)c1` [Example 144, N-(5′-cyano-2-methyl-6′-(tetrahydro-2H-pyran-4-yl)-[3,3′-bipyridin]-5-yl)-6-(trifluoromethyl) pyridazine-4-carboxamide] the IC50 (b-Raf (V600E)) was 76 nM and the IC50 (C-RAF) was 12.6 nM.

`Cc1ccc(NC(=O)c2ccnc(C3(C#N)CC3)c2)cc1-c1cnc(N2CCNCC2)c(C#N)c1` [Example 145, N-(3-(5-cyano-6-(piperazin-1-yl)pyridin-3-yl)-4-methylphenyl)-2-(1-cyanocyclopropyl) isonicotinamide] gave an IC50 (b-Raf (V600E)) of 0.56 nM and an IC50 (C-RAF) of 0.148 nM.

With `Cc1ncc(NC(=O)c2ccnc(C3(C#N)CC3)c2)cc1-c1cnc(N2CCOCC2)c(C#N)c1` [Example 146, N-(5′-cyano-2-methyl-6′-morpholino-[3,3′-bipyridin]-5-yl)-2-(1-cyanocyclopropyl) isonicotinamide] the IC50 (b-Raf (V600E)) was 1.33 nM and the IC50 (C-RAF) was 0.262 nM.

`Cc1ccc(NC(=O)c2ccnc(C3(C#N)CC3)c2)cc1-c1cnc(N2CCOCC2)c(C#N)c1` [Example 147, N-(3-(5-cyano-6-morpholinopyridin-3-yl)-4-methylphenyl)-2-(1-cyanocyclopropyl) isonicotinamide] gave an IC50 (b-Raf (V600E)) of 0.503 nM and an IC50 (C-RAF) of 0.116 nM.

`Cc1ncc(NC(=O)c2ccnc(C3(C#N)CC3)c2)cc1-c1cnc(C2CCOCC2)c(C#N)c1` [Example 148, N-(5'-cyano-2-methyl-6'-(tetrahydro-2H-pyran-4-yl)-[3,3'-bipyridin]-5-yl)-2-(1-cyanocyclopropyl) isonicotinamide] showed an IC50 (b-Raf (V600E)) of 3.34 nM and an IC50 (C-RAF) of 0.731 nM.
